Test results: article PMC7661526, “Antibiofilm effects of N,O-acetals derived from 2-amino-1,4-naphthoquinone are associated with downregulation of important global virulence regulators in methicillin-resistant Staphylococcus aureus” (Scientific Reports, 2020)
≈ marks a conversion by molar mass, not a printed value. Where “and” joins values, the source holds several entries; their conditions need not be identical. Identical values can stand only once. Like-named read-outs stand apart in the source and are kept apart here.

Legend:
psmα3 = assay: Real-time RT-qPCR of biofilm-associated genes; format: cell-based, Staphylococcus aureus
S. aureus ATCC 25923 = assay: MIC, broth microdilution; format: cell-based, Staphylococcus aureus
From the text: Strain representatives of six globally spread clones/lineages of MRSA were used in this study to test the antimicrobial activity of the N,O-acetal derivatives against MRSA: NY/Japan-USA100/ST5-SCCmecII (strain CR15-071), USA300/ST8-SCCmecIV (strain USA300-0114), USA400/ST1-SCCmecIV (strain USA400-0051), Brazilian epidemic clone-BEC/ST239-SCCmecIII (strain BMB9393), pediatric clone-USA800/ST5-SCCmecIV (strain USA800-0179), and OSPC-USA1100/ST30-SCCmecIV (strain 07-040). The S. aureus ATCC 25923 was used as a control for the experiment of drug susceptibility. […] For biofilm production, tryptic soy broth (TSB; BD, Franklin Lakes, NJ, USA) was supplemented with 1% (w/v) glucose (TSB-Glu). Tryptic soy agar (TSA; BD) was used for bacterial growth. The Mueller-Hinton broth (MHB; BD) and Mueller-Hinton agar (MHA; BD) was used for susceptibility tests. All strains were maintained in 10% (v/v) glycerol stocks and stored at − 80 °C.
(§1) The antibacterial activity of 6a and its derivatives 7a, 7b, and 7c was tested as previously described using paper disks impregnated with each compound[13]. The derivatives were also analyzed quantitatively using microdilution assays in 96-well inert polystyrene microtiter plates (Nuclon; Nalge Nunc International, Rochester, NY, USA) to determine the minimal inhibitory concentration (MIC)[14]. Biological control, as well as growth conditions, were performed following CLSI recommendation[15],[16]. […] Controls were also performed using 2% (v/v) DMSO only.

atlA = assay: Autolytic system: atlA real-time qRT-PCR; format: cell-based, Staphylococcus aureus
mecA = assay: Real-time RT-qPCR of biofilm-associated genes; format: cell-based, Staphylococcus aureus
spa = assay: Real-time RT-qPCR of biofilm-associated genes; format: cell-based, Staphylococcus aureus
MRSA strain BMB9393 = assay: Autolytic system: extracellular DNA (eDNA) in supernatant; format: cell-based, Staphylococcus aureus; conditions: 1/4MIC, 7b stated relative to 7c
[1] = test system: MRSA ST5-SCCmecIV (USA800); assay: Disk diffusion test; format: cell-based, Staphylococcus aureus
[2] = test system: MRSA OSPC-USA1100 (07-040); assay: MIC, broth microdilution; format: cell-based, Staphylococcus aureus
Method: (§2) For biofilm production, tryptic soy broth (TSB; BD, Franklin Lakes, NJ, USA) was supplemented with 1% (w/v) glucose (TSB-Glu). Tryptic soy agar (TSA; BD) was used for bacterial growth. The Mueller-Hinton broth (MHB; BD) and Mueller-Hinton agar (MHA; BD) was used for susceptibility tests. All strains were maintained in 10% (v/v) glycerol stocks and stored at − 80 °C.
as §1, with “The” for “The antibacterial activity of 6a and its derivatives 7a, 7b, and 7c was tested as previously described using paper disks impregnated with each compound[13]. The”

[3] = test system: MRSA USA300 (USA300-0114); assay: MIC, broth microdilution; format: cell-based, Staphylococcus aureus
Method: as §2
as §1, with “The” for “The antibacterial activity of 6a and its derivatives 7a, 7b, and 7c was tested as previously described using paper disks impregnated with each compound[13]. The”

[4] = test system: MRSA Pediatric-USA800 (USA800-0179); assay: MIC, broth microdilution; format: cell-based, Staphylococcus aureus
Method: as §2
as §1, with “The” for “The antibacterial activity of 6a and its derivatives 7a, 7b, and 7c was tested as previously described using paper disks impregnated with each compound[13]. The”

[5] = test system: MRSA USA400 (USA400-0051); assay: MIC, broth microdilution; format: cell-based, Staphylococcus aureus
Method: as §2
as §1, with “The” for “The antibacterial activity of 6a and its derivatives 7a, 7b, and 7c was tested as previously described using paper disks impregnated with each compound[13]. The”

[6] = test system: MRSA NY/Japan-USA100 (CR15-071); assay: MIC, broth microdilution; format: cell-based, Staphylococcus aureus
Method: as §2
as §1, with “The” for “The antibacterial activity of 6a and its derivatives 7a, 7b, and 7c was tested as previously described using paper disks impregnated with each compound[13]. The”

MRSA BEC (BMB9393) = assay: microbe, parasite or virus in culture; format: cell-based, Staphylococcus aureus
Method: as §2
as §1, with “The” for “The antibacterial activity of 6a and its derivatives 7a, 7b, and 7c was tested as previously described using paper disks impregnated with each compound[13]. The”

fnbA = assay: Real-time RT-qPCR of biofilm-associated genes; format: cell-based, Staphylococcus aureus
[7] = test system: MRSA strain BMB9393 biofilm; assay: Biofilm development on polystyrene, crystal violet; format: cell-based, Staphylococcus aureus; conditions: 1/4MIC (7b 32 µg/mL, 7c 16 µg/mL); strain BMB9393, 24 h, crystal violet
Method: Biofilms were formed on polystyrene surfaces using the BEC representative, strain BMB9393. […] The same volume of the bacterial culture in TSB-Glu (37 °C/18 h; at 250 rpm) diluted 1/100 in the same broth was added to the wells. After incubation (37 °C/24 h), supernatants were gently removed, rinsed with distilled water, and treated with crystal violet solution as described. […] Eight independent tests with three replicates each were performed. Controls were inoculated with the same bacterial inoculum but using only TSB-Glu with 2% (v/v) DMSO, final concentration.

[8] = test system: MRSA ST30-SCCmecIV (USA1100); assay: Disk diffusion test; format: cell-based, Staphylococcus aureus
rnaIII = assay: Real-time RT-qPCR of global regulators; format: cell-based, Staphylococcus aureus
[9] = test system: MRSA ST239-SCCmecIII (BMB9393); assay: Disk diffusion test; format: cell-based, Staphylococcus aureus
[10] = test system: MRSA ST8-SCCmecIV (USA300); assay: Disk diffusion test; format: cell-based, Staphylococcus aureus
[11] = test system: MRSA ST5-SCCmecII (USA100); assay: Disk diffusion test; format: cell-based, Staphylococcus aureus
[12] = test system: MRSA (ST1-SCCmecIV) (USA400); assay: Disk diffusion test; format: cell-based, Staphylococcus aureus
sarA = assay: Real-time RT-qPCR of global regulators; format: cell-based, Staphylococcus aureus
[13] = Table 2, used for SI, strain not given, values of 6a-7c equal those for BEC (BMB9393)

Row | Structure (SMILES) | Reduction of psmα3 expression (psmα3) | Reduction of hla expression (hla) | Increase in atlA transcripts (atlA) | mecA expression (mecA) | Reduction of spa expression (spa) | Amount of eDNA in bacterial supernatant (cell lysis) (MRSA strain BMB9393) | Inhibition zone [1] | MIC (MRSA BEC (BMB9393); [13]) | Reduction of fnbA expression (fnbA) | Reduction of accumulated biofilm matrix [7] | Inhibition zone [8] | Reduction of RNAIII transcripts (rnaIII) | Inhibition zone [9] | Inhibition zone [10] | Inhibition zone [11] | Inhibition zone [12] | Reduction of sarA gene expression (sarA) | further results
1 | CCOCNC1=CC(=O)c2ccccc2C1=O [7b, 2-(ethoxymethyl)-amino-1,4-naphthoquinone] | 97.75 ± 0.6% | 90.0 ± 0.6% | 3.5 times | not significantly affected | 95.4 ± 0.9% | even higher (about two-fold) | 13±0.5 mm | 128 µg/mL (≈ 554 µM) | 89.3% ± 1.5% | 87.4% ± 1.9% and 88% | 13±1.0 mm | 88.0 ± 1.1% | 10±1.0 mm | 12±2.0 mm | 13±2.0 mm | 13±1.0 mm | 65.5 ± 6.0% | MIC (S. aureus ATCC 25923; Staphylococcus aureus, ATCC25923, control strain S. aureus ATCC 25923, read-out: MIC): 64 µg/mL (≈ 277 µM); MIC ([2]; Staphylococcus aureus, MRSA): 256 µg/mL (≈ 1110 µM); MIC ([3]; Staphylococcus aureus): 64 µg/mL (≈ 277 µM); MIC ([4]; Staphylococcus aureus): 256 µg/mL (≈ 1110 µM); MIC ([5]; Staphylococcus aureus): 128 µg/mL (≈ 554 µM); MIC ([6]; Staphylococcus aureus): 128 µg/mL (≈ 554 µM); MIC (MRSA BEC (BMB9393); Staphylococcus aureus, MRSA): 128 µg/mL (≈ 554 µM)
2 | C#CCOCNC1=CC(=O)c2ccccc2C1=O [7c, 2-(propynyloxymethyl)-amino-1,4-naphthoquinone] | 87.73 ± 4.3% | 86.5 ± 1.0% | three-fold increase | not significantly affected | 74.82 ± 4.9% | increased | 13±1.0 mm | 64 µg/mL (≈ 265 µM) | 24.64% ± 3.5% | 75.6% ± 3.7% and 75% | 15±0.8 mm | 70.6 ± 2.2% | 13±1.0 mm | 13±1.3 mm | 12±1.5 mm | 11±0.8 mm | no important effect | MIC (S. aureus ATCC 25923; control strain S. aureus ATCC 25923): 16 µg/mL (≈ 66.3 µM); MIC ([2]; broth microdilution, OSPC-USA1100 (07-040)): 128 µg/mL (≈ 531 µM); MIC ([3]; broth microdilution, USA300 (USA300-0114)): 64 µg/mL (≈ 265 µM); MIC ([4]; broth microdilution, Pediatric-USA800 (USA800-0179)): 64 µg/mL (≈ 265 µM); MIC ([5]; broth microdilution, USA400 (USA400-0051)): 64 µg/mL (≈ 265 µM); MIC ([6]; broth microdilution, NY/Japan-USA100 (CR15-071)): 128 µg/mL (≈ 531 µM); MIC (MRSA BEC (BMB9393); broth microdilution, BEC (BMB9393)): 64 µg/mL (≈ 265 µM)
